Consider 37 compounds from ChEMBL document CHEMBL5505985 (Eur J Med Chem, 2024).

Data set [1] concerns RAW264.7. Description: Cytotoxicity activity mouse RAW264.7 cells assessed as reduction in cell viability at 10 uM incubated for 48 hrs by MTT assay. As to conditions: raw264.7, 48 h. In kind it is toxicity, cell-based.
Data set [2] deals with RAW264.7. Description: Cytotoxicity activity mouse RAW264.7 cells assessed as decrease in survival rate at 50 uM incubated for 48 hrs by MTT assay. In kind it is toxicity, cell-based. As to conditions: raw264.7, 48 h.
Data set [3] has as its target T1, Prostaglandin G/H synthase 2 (Homo sapiens) (UniProt P35354).
T1 sequence (whole entry): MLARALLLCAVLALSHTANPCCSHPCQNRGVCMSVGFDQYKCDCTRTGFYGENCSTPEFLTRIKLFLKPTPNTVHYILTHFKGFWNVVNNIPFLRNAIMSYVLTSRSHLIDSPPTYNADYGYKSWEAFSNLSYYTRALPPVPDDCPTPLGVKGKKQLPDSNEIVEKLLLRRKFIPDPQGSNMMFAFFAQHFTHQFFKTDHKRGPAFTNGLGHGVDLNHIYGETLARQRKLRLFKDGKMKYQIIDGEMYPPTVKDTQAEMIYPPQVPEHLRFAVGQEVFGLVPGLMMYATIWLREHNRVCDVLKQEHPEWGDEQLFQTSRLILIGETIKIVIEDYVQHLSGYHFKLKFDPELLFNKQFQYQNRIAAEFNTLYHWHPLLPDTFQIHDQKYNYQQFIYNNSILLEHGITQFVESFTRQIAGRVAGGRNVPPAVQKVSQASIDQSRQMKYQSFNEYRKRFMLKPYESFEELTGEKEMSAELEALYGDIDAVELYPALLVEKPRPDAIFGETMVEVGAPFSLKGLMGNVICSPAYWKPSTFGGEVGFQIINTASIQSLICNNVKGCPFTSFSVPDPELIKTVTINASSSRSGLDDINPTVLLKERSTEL
Briefly: Inhibition of human recombinant COX-2 using arachidonic acid as substrate at 10 uM pretreated for 5 mins followed by substrate addition and measured after 2 mins by fluorescence based analysis relative to control. As to conditions: time 7.0 min.

Some results are limits rather than exact numbers.

With `COc1ccc(CSc2nnc(Cc3ccccc3Nc3c(Cl)cccc3Cl)o2)cc1`, the Activity entry in the data set on RAW264.7 [1] is “Non-Toxic”.

As to `N#Cc1ccc(CSc2nnc(Cc3ccccc3Nc3c(Cl)cccc3Cl)o2)cc1`, the Activity entry in the data set on RAW264.7 [1] is “Non-Toxic”.

On to `O=C(Cc1ccccc1Nc1c(Cl)cccc1Cl)NN1C(=O)CCC1=O`, for which the Activity entry in the data set on RAW264.7 [1] was “Non-Toxic”.

Consider `Fc1cccc(C2=Nn3c(Cc4ccccc4Nc4c(Cl)cccc4Cl)nnc3SC2)c1`, for which the Activity entry with RAW264.7 [1] was “Non-Toxic”.

On to `Clc1cccc(Cl)c1Nc1ccccc1Cc1nnc2n1N=C(c1cccc(Br)c1)CS2`, for which the results for the Activity result in the data set with RAW264.7 [1] and in the data set with RAW264.7 [2] were “Non-Toxic” and “Toxic”, respectively.

In the case of `Clc1cccc(Cl)c1Nc1ccccc1Cc1nnc2n1N=C(c1ccc(Br)cc1)CS2`, in the data set with RAW264.7 [1], the Activity result was “Non-Toxic”.

Consider `Clc1cccc(C2=Nn3c(Cc4ccccc4Nc4c(Cl)cccc4Cl)nnc3SC2)c1`, for which the Activity entry in the data set on RAW264.7 [1] is “Non-Toxic”; with RAW264.7 [2] it was “Toxic”.

As to `Fc1ccc(CSc2nnc(Cc3ccccc3Nc3c(Cl)cccc3Cl)o2)cc1`, in the data set with RAW264.7 [1], the Activity entry is on record as “Non-Toxic”.

For the compound `CCSc1nnc(Cc2ccccc2Nc2c(Cl)cccc2Cl)o1`, the Activity entry with RAW264.7 [1] is given as “Non-Toxic”.

For the compound `Clc1cccc(Cl)c1Nc1ccccc1Cc1nnc(SCc2ccccc2)o1`, the Activity result with RAW264.7 [1] is given as “Non-Toxic”.

For the compound `Cc1ccccc1CSc1nnc(Cc2ccccc2Nc2c(Cl)cccc2Cl)o1`, in the data set on RAW264.7 [1], the Activity entry was “Non-Toxic”.

For `Clc1cccc(Cl)c1Nc1ccccc1Cc1nnc2n1N=C(c1ccccc1)CS2`, the Activity entry in the data set with RAW264.7 [1] is listed as “Non-Toxic”.

For `CCCSc1nnc(Cc2ccccc2Nc2c(Cl)cccc2Cl)o1`, in the data set on RAW264.7 [1], the Activity entry is “Non-Toxic”.

Take `COc1cccc(C2=Nn3c(Cc4ccccc4Nc4c(Cl)cccc4Cl)nnc3SC2)c1`: in the data set on RAW264.7 [1], the Activity result is on record as “Non-Toxic”.

As for `Cc1ccc(CSc2nnc(Cc3ccccc3Nc3c(Cl)cccc3Cl)o2)cc1`, in the data set on RAW264.7 [1], the Activity result is given as “Non-Toxic”.

For the compound `Clc1ccc(CSc2nnc(Cc3ccccc3Nc3c(Cl)cccc3Cl)o2)cc1`, the inhibition in data set [3] was less than 30%. Moreover, the Activity result with RAW264.7 [1] was “Non-Toxic”.

Take `Fc1ccc(C2=Nn3c(Cc4ccccc4Nc4c(Cl)cccc4Cl)nnc3SC2)cc1`: the Activity result in the data set with RAW264.7 [1] was “Non-Toxic”; with RAW264.7 [2], “Toxic”.

Turning to `Clc1cccc(CSc2nnc(Cc3ccccc3Nc3c(Cl)cccc3Cl)o2)c1`, in data set [3], the inhibition is less than 30%. In the data set on RAW264.7 [1], the Activity entry is “Non-Toxic”.

Take `CC(C)Sc1nnc(Cc2ccccc2Nc2c(Cl)cccc2Cl)o1`: the Activity entry in the data set with RAW264.7 [1] was “Non-Toxic”.

Take `COc1ccc(C2=Nn3c(Cc4ccccc4Nc4c(Cl)cccc4Cl)nnc3SC2)cc1`: the Activity entry with RAW264.7 [1] is given as “Non-Toxic”.

Turning to `O=[N+]([O-])c1ccccc1C1=Nn2c(Cc3ccccc3Nc3c(Cl)cccc3Cl)nnc2SC1`, the Activity result in the data set on RAW264.7 [1] is recorded as “Non-Toxic”.

Regarding `Clc1cccc(Cl)c1Nc1ccccc1Cc1nnc(SCc2ccncc2)o1`, the Activity result is given as “Non-Toxic” in the data set with RAW264.7 [1] and “Toxic” with RAW264.7 [2].

As to `Clc1ccccc1CSc1nnc(Cc2ccccc2Nc2c(Cl)cccc2Cl)o1`, the inhibition in data set [3] is less than 30%. The Activity entry with RAW264.7 [1] is “Non-Toxic”.

Consider `Clc1cccc(Cl)c1Nc1ccccc1Cc1nnc(SCc2ccc(Br)cc2)o1`, for which the Activity entry in the data set with RAW264.7 [1] is “Non-Toxic”.

Take `O=C(Cc1ccccc1Nc1c(Cl)cccc1Cl)NN1C(=O)c2ccccc2C1=O`: the Activity result was “Non-Toxic” with RAW264.7 [1] and “Toxic” in the data set on RAW264.7 [2].

Consider `CCCCSc1nnc(Cc2ccccc2Nc2c(Cl)cccc2Cl)o1`, for which, in the data set with RAW264.7 [1], the Activity entry is “Non-Toxic”.

On to `Clc1ccc(C2=Nn3c(Cc4ccccc4Nc4c(Cl)cccc4Cl)nnc3SC2)cc1`, for which the results for the Activity entry with RAW264.7 [1] and in the data set with RAW264.7 [2] were “Non-Toxic” and “Toxic”, respectively.

With `Clc1cccc(Cl)c1Nc1ccccc1Cc1nnc(SCC2CCCCC2)o1`, the Activity result with RAW264.7 [1] was “Non-Toxic”.

As to `Cc1cccc(CSc2nnc(Cc3ccccc3Nc3c(Cl)cccc3Cl)o2)c1`, the Activity entry in the data set on RAW264.7 [1] is recorded as “Non-Toxic”.

For `Fc1cccc(CSc2nnc(Cc3ccccc3Nc3c(Cl)cccc3Cl)o2)c1`, in the data set on RAW264.7 [1], the Activity entry was “Non-Toxic”.

Take `O=[N+]([O-])c1ccc(C2=Nn3c(Cc4ccccc4Nc4c(Cl)cccc4Cl)nnc3SC2)cc1`: in the data set on RAW264.7 [1], the Activity result is recorded as “Non-Toxic”.

With `Clc1cccc(Cl)c1Nc1ccccc1Cc1nnc(SCc2cccc(Br)c2)o1`, in the data set on RAW264.7 [1], the Activity result is “Non-Toxic”.

For `Clc1cccc(Cl)c1Nc1ccccc1Cc1nnc(SC2CCCCC2)o1`, the Activity result in the data set with RAW264.7 [1] is listed as “Non-Toxic”.

`Fc1ccccc1CSc1nnc(Cc2ccccc2Nc2c(Cl)cccc2Cl)o1`: the Activity entry with RAW264.7 [1] is listed as “Non-Toxic”.

In the case of `Fc1ccc(CSc2nnc(Cc3ccccc3Nc3c(Cl)cccc3Cl)o2)c(F)c1`, in the data set with RAW264.7 [1], the Activity result is on record as “Non-Toxic”.

For `Clc1cccc(Cl)c1Nc1ccccc1Cc1nnc2n1N=C(c1ccccc1Br)CS2`, the Activity entry in the data set with RAW264.7 [1] is given as “Non-Toxic”.

Regarding `CSc1nnc(Cc2ccccc2Nc2c(Cl)cccc2Cl)o1`, the Activity entry with RAW264.7 [1] was “Non-Toxic”.
